# Assays:
# Assay type in all cases: in vivo
# [1] = system: cotton aphids (Aphis gossypii); assay: Test method 1: diluted solution sprayed on cucumber seedlings infested with cotton aphids; conditions: 500 ppm, spray 10 mL/seedling on cucumber, 5 days after spraying, 25° C.
# Protocol: (§1) Next, Test Examples are used to show effects of the Present compounds on harmful arthropods. In the following Test Examples, the tests were carried out at 25° C.
# (§2) Each test compound is formulated according to the method described in the Formulation Example 5 to obtain each formulation, and water containing Sindaine (registered trademark) (0.03% by volume) is added thereto to prepare a diluted solution containing a prescribed concentration of each test compound.
# Cucumber (Cucumis sativus) seedlings (on the developmental stage of the second true leaf) are planted in a container and approximately 30 cotton aphids (Aphis gossypii) (all stages of life) are released onto the cucumber seedlings. After 1 day, each of said diluted solutions is sprayed into the seedlings in a ratio of 10 mL/seedling. After additional 5 days, the number of the surviving insects is examined and the controlling value is calculated by the following equation. Controlling value (%)={1−(Cb×Tai)/(Cai×Tb)}×100 wherein the symbols in the equation represent the following meanings.
# (§3) Cb: Number of the test insects in non-treated area;
# Cai: Number of the surviving insects at the time of the investigation in non-treated area; Tb: Number of the test insects in treated area;
# (§4) Tai: Number of the surviving insects at the time of the investigation in treated area; […]
# [2] = system: cotton aphids (Aphis gossypii); assay: Test method 2: diluted solution irrigated into plant foot of cucumber seedlings, cotton aphids released after 7 days; conditions: 1000 ppm, irrigation into plant foot 5 mL/seedling, counted after additional 6 days, 25° C.
# Protocol: as §1
# Each test compound is formulated according to the method described in the Formulation Example 5 to obtain each formulation, and water is added thereto to prepare a diluted solution containing a prescribed concentration of each test compound.
# Cucumber seedlings (on the developmental stage of the second true leaf) are planted in a container, and each of said diluted solutions is irrigated into the plant foot in a ratio of 5 mL/seedlings. After 7 days, approximately 30 cotton aphids (Aphis gossypii) (all stages of life) are released onto the surfaces of leaves of the cucumber seedlings. After additional 6 days, the number of the surviving insects is examined and the controlling value is calculated by the following equation. Controlling value (%)={1−(Cb×Tai)/(Cai×Tb)}×100 wherein the symbols in the equation represent the following meanings.
# as §3
# Cai: Number of the surviving insects at the time of the investigation in non-treated area;
# Tb: Number of the test insects in treated area;
# as §4
# [3] = system: cotton worm (Spodoptera litura); assay: Test method 3: sprayed cabbage seedlings, 3rd instar larvae of cotton worm; conditions: 500 ppm, spray 20 mL/seedling on cabbage, after 5 days, 25° C.
# Protocol: as §1, §2
# (§5) Cabbage (Brassicae oleracea) seedlings (on the developmental stage of the second to third true leaf) are planted in a container, and each of said diluted solutions is sprayed into the seedlings in a ratio of 20 mL/seedlings. Thereafter, the stem and leaf of the seedlings are cut out, and placed into a container lined with a filter paper. Five (5) the 3rd instar larvae of cotton worm (Spodoptera litura) are released into the container. After 5 days, the number of the surviving insects is counted, and the mortality of insects is calculated by the following equation. Mortality (%)=(1−Number of surviving insects/5)×100
# [4] = system: diamondback moth (Plutella xylostella); assay: Test method 4: sprayed cabbage seedlings, 3rd instar larvae of diamondback moth; conditions: 500 ppm, spray 20 mL/seedling on cabbage, after 5 days, 25° C.
# Protocol: as §1, §2
# as §5, with “Cabbage” for “Cabbage (Brassicae oleracea)”, “diamondback moth (Plutella xylostella)” for “cotton worm (Spodoptera litura)”
# [5] = system: western corn rootworm (Diabrotica virgifera virgifera); assay: Test method 5: corn seedlings immersed in diluted solution, 2nd instar larvae of western corn rootworm; conditions: 500 ppm, corn seedlings immersed 30 seconds, after 5 days, 25° C.
# Protocol: as §1
# Each test compound is dissolved into a mixed solution (50 μL) of polyoxyethylene sorbitan mono-cocoate and acetone (at a volume ratio of polyoxyethylene sorbitan mono-cocoate:acetone=5:95) per 1 mg of the test compound. Water containing Sindaine (registered trademark) (0.03% by volume) is added thereto to prepare a diluted solution containing a prescribed concentration of each test compound.
# Young seedlings of corns (Zea mays) are immersed into each of said diluted solutions for 30 seconds. Thereafter, two of said seedlings are placed into a petri dish (diameter: 90 mm), and 10 the 2nd instar larvae of western corn rootworm (Diabrotica virgifera virgifera) are released into the dish. After 5 days, the number of the dead insects is counted, and the mortality of insects is calculated by the following equation. Mortality (%)=(Number of dead insects/10)×100
compound,measurement,setting,value
CCS(=O)(=O)c1c(-n2ccn3nc(C(F)(F)F)cc3c2=O)nc2ccc(C(F)(F)F)cn12 [compound 2],controlling value,[1],≥ 90%
same,controlling value,[2],≥ 90%
same,mortality,[3],≥ 80%
same,mortality,[4],≥ 80%
same,mortality,[5],≥ 80%

# Source: patent US12144350B2, “Heterocyclic compound and harmful arthropod control composition containing same” (SUMITOMO CHEMICAL COMPANY, LIMITED, priority 2019, dated 2024)
